In DBAASP one finds MIC data, which are given here for twelve compounds.

A word on the MIC: it is the lowest concentration that inhibits growth of the organism. A low value points to inhibition by little substance.

≈ marks a conversion by molar mass, not a printed value.

Assay in all cases: ≥ marks a high value that may be exact or a test limit, other limits are often not marked, values filed in µg/mL are converted to µM
The subject of experiment [1] is Proteus mirabilis.
Experiment [2] relates to Staphylococcus aureus.
Experiment [3] has as its system Micrococcus luteus.
In experiment [4] the test system is Salmonella typhimurium.
Experiment [5] concerns Klebsiella pneumoniae.
The test system of experiment [6] is Shigella dysenteriae.
Experiment [7] deals with Escherichia coli.
Experiment [8] has as its system Bacillus subtilis.
Experiment [9] deals with Staphylococcus epidermidis.
For experiment [10], the system named is Pseudomonas aeruginosa.
For experiment [11], the system named is Escherichia coli ATCC 25922.
Experiment [12] relates to Klebsiella pneumoniae ATCC 700603.
For experiment [13], the system named is Staphylococcus aureus ATCC 25923.
Experiment [14] has as its system Pseudomonas aeruginosa ATCC 9027.
In experiment [15] the test system is Acinetobacter baumannii.
Experiment [16] has as its system Staphylococcus aureus ATCC 2592.
Experiment [17] deals with Candida albicans ATCC 2002.
The test system of experiment [18] is Staphylococcus aureus ATCC 6538.
Experiment [19] relates to Bacillus subtilis ATCC 6633.
Experiment [20] relates to Bacillus subtilis ATCC 23857.

Turning to `CC(C)C[C@H](NC(=O)[C@H](C)NC(=O)CNC(=O)[C@H](CC(C)C)NC(=O)[C@@H](N)Cc1ccccc1)C(=O)N[C@@H](Cc1ccccc1)C(=O)N[C@@H](Cc1c[nH]c2ccccc12)C(=O)N[C@H](C(=O)N[C@@H](C)C(=O)N[C@@H](CO)C(=O)N[C@@H](CCCCN)C(=O)O)C(C)C` [FLGALFWVASK], the MIC in [1] is at least 161 µM; in experiment [2] it was over 161 µM; in experiment [3] it was at least 161 µM; in [4], at least 161 µM; in [5], over 161 µM; in experiment [6], at least 161 µM. For the same compound, the MIC in [7] is over 161 µM; in [8], at least 161 µM; in experiment [9], at least 161 µM; in experiment [10] it was over 161 µM.

Consider `CC[C@H](C)[C@H](NC(=O)[C@H](CC(C)C)NC(=O)[C@H](CCC(N)=O)NC(=O)[C@@H](NC(=O)[C@H](CC(C)C)NC(=O)[C@H](CCCN=C(N)N)NC(=O)[C@H](CCCN=C(N)N)NC(=O)[C@@H](NC(=O)[C@H](C)NC(=O)[C@H](CCCCN)NC(=O)[C@H](CCCN=C(N)N)NC(=O)[C@H](CC(C)C)NC(=O)[C@@H](NC(=O)[C@H](C)NC(=O)[C@@H](NC(=O)[C@H](C)N)[C@@H](C)O)[C@@H](C)CC)[C@@H](C)O)C(C)C)C(=O)O` [ATAILRKATRRLVQLI], for which the MIC in experiment [11] is over 25 µM; in experiment [12], over 25 µM; in experiment [13], over 25 µM; in experiment [14] it was over 25 µM; in experiment [15], 25 µM (≈ 45.6 µg/mL).

As for `CC(C)C[C@H](NC(=O)[C@@H](N)Cc1ccccc1)C(=O)NCC(=O)N[C@@H](C)C(=O)N[C@@H](Cc1c[nH]c2ccccc12)C(=O)N[C@@H](Cc1ccccc1)C(=O)N[C@@H](CCCCN)C(=O)N[C@H](C(=O)N[C@@H](C)C(=O)N[C@@H](CO)C(=O)N[C@@H](CCCCN)C(=O)O)C(C)C` [FLGAWFKVASK], the MIC in experiment [1] was at least 160 µM; in experiment [2], over 160 µM; in experiment [3], at least 160 µM; in [4] it was at least 160 µM; in experiment [5] it was over 160 µM; in experiment [6], at least 160 µM. Moreover, the MIC in experiment [7] is over 160 µM; in [8] it was at least 160 µM; in experiment [9], at least 160 µM; in experiment [10] it was over 160 µM.

For the compound `CC[C@H](C)[C@@H]1NC(=O)[C@H](CO)NC(=O)[C@H](CCCCN)NC(=O)[C@H]([C@@H](C)O)NC(=O)[C@H](Cc2c[nH]c3ccccc23)NC(=O)[C@@H](NC(=O)CNC(=O)[C@H](CCCCN)NC(=O)[C@H](CC(C)C)NC(=O)[C@H](C)NC(=O)[C@H](C)N)CSSC[C@@H](C(=O)N[C@@H](Cc2ccccc2)C(=O)NCC(=O)N[C@@H](Cc2ccccc2)C(=O)O)NC(=O)[C@@H]2CCCN2C(=O)[C@H](CCCCN)NC(=O)[C@@H]2CCCN2C(=O)[C@@H]2CCCN2C1=O` [AALKGCWTKSIPPKPCFGF], the MIC in [11] is 1.38 µM (≈ 2.84 µg/mL); in experiment [16], 1.03 µM (≈ 2.12 µg/mL); in experiment [17] it was 2.32 µM (≈ 4.76 µg/mL); in experiment [8], 1.19 µM (≈ 2.44 µg/mL).

Compound `CC(C)C[C@H](NC(=O)CNC(=O)[C@@H](NC(=O)[C@@H]1CCCN1C(=O)[C@H](CC(C)C)NC(=O)CNC(=O)[C@H](CC(N)=O)NC(=O)[C@H](CC(N)=O)NC(=O)[C@H](Cc1ccc(O)cc1)NC(=O)[C@@H](NC(=O)[C@H](CCCN=C(N)N)NC(=O)[C@H](CS)NC(=O)[C@H](CCCN=C(N)N)NC(=O)[C@H](Cc1cnc[nH]1)NC(=O)[C@H](CCCCN)NC(=O)[C@@H](N)CCCCN)C(C)C)[C@@H](C)O)C(=O)N[C@@H](Cc1ccc(O)cc1)C(=O)N[C@@H](CCCN=C(N)N)C(=O)N[C@@H](Cc1c[nH]c2ccccc12)C(=O)N[C@@H](CS)C(N)=O` [KKHRCRVYNNGLPTGLYRWC] registered an MIC in experiment [18] of 2.4 µM (≈ 5.91 µg/mL). This counts as single-digit micromolar.

For `CC(C)C[C@H](NC(=O)[C@H](C)NC(=O)CNC(=O)[C@H](Cc1c[nH]c2ccccc12)NC(=O)[C@@H](N)Cc1ccccc1)C(=O)N[C@@H](Cc1ccccc1)C(=O)N[C@@H](CCCCN)C(=O)N[C@H](C(=O)N[C@@H](C)C(=O)N[C@@H](CO)C(=O)N[C@@H](CCCCN)C(=O)O)C(C)C` [FWGALFKVASK], the MIC is at least 160 µM in [1]; 19.9 µM (≈ 25 µg/mL) in experiment [2]; at least 79.8 µM in [3]; at least 160 µM in experiment [4]; 79.8 µM (≈ 100 µg/mL) in experiment [5]; at least 160 µM in [6]. Also, the MIC in [7] was 79.8 µM (≈ 100 µg/mL); in experiment [8], at least 39.9 µM; in [9], at least 79.8 µM; in experiment [10] it was over 160 µM.

For the compound `CC[C@H](C)[C@H](NC(=O)[C@@H]1CCCN1C(=O)[C@H](CC(C)C)NC(=O)[C@@H](N)Cc1ccccc1)C(=O)N[C@H](C(=O)NCC(=O)N[C@@H](CCCCN)C(=O)N[C@@H](CC(C)C)C(=O)N[C@@H](CC(C)C)C(=O)N[C@@H](CO)C(=O)NCC(=O)N[C@@H](CC(C)C)C(=O)N[C@@H](CO)C(=O)NCC(=O)N[C@@H](CC(C)C)C(=O)N[C@@H](CC(C)C)C(N)=O)C(C)C` [FLPIVGKLLSGLSGLL], the MIC is 1.84 µM (≈ 3 µg/mL) in experiment [11], 1.23 µM (≈ 2 µg/mL) in experiment [16], 4 µM (≈ 6.5 µg/mL) in [17] and 0.922 µM (≈ 1.5 µg/mL) in [6].

`CC[C@H](C)[C@H](NC(=O)[C@H](CCCCN)NC(=O)[C@@H]1CCCN1C(=O)[C@H](Cc1ccccc1)NC(=O)[C@@H](NC(=O)[C@H](CO)NC(=O)CNC(=O)[C@H](CC(C)C)NC(=O)[C@H](C)NC(=O)[C@H](CCCCN)NC(=O)[C@H](CC(C)C)NC(=O)[C@H](C)NC(=O)[C@@H](NC(=O)[C@@H]1CCCN1C(=O)[C@H](CC(C)C)NC(=O)[C@@H](N)Cc1ccccc1)[C@@H](C)CC)[C@@H](C)CC)C(=O)N[C@@H](CC(C)C)C(N)=O` [FLPIALKALGSIFPKIL]: the MIC in [16] stood at 6.79 µM (≈ 12.5 µg/mL); in experiment [19] it was 27.2 µM (≈ 50 µg/mL).

Take `CC[C@H](C)[C@H](NC(=O)[C@H](CCCCN)NC(=O)[C@H](CCCCN)NC(=O)[C@H](C)NC(=O)[C@@H](NC(=O)[C@H](C)NC(=O)[C@H](CC(C)C)NC(=O)[C@H](CC(C)C)NC(=O)[C@H](CCCCN)NC(=O)[C@H](CCCCN)NC(=O)[C@H](CC(C)C)NC(=O)[C@H](CC(N)=O)NC(=O)[C@@H](N)CC(C)C)C(C)C)C(N)=O` [LNLKKLLAVAKKI]: the MIC in experiment [11] is 16 µM (≈ 23.2 µg/mL); in [12] it was 64 µM (≈ 92.9 µg/mL); in [13], 128 µM (≈ 186 µg/mL); in experiment [20] it was 8 µM (≈ 11.6 µg/mL); in experiment [14], 16 µM (≈ 23.2 µg/mL).

Regarding `CC[C@H](C)[C@H](NC(=O)CNC(=O)[C@H](CO)NC(=O)[C@H](CC(C)C)NC(=O)[C@@H](N)Cc1ccccc1)C(=O)N[C@@H](CC(C)C)C(=O)N[C@@H](CCCCN)C(=O)N[C@@H](CC(C)C)C(=O)N[C@@H](C)C(=O)N[C@@H](Cc1ccccc1)C(=O)N[C@@H](CCCCN)C(=O)N[C@H](C(=O)N1CCC[C@H]1C(=O)N[C@@H](CO)C(=O)N[C@H](C(=O)N[C@@H](CC(C)C)C(=O)N[C@H]1CSSC[C@@H](C(=O)O)NC(=O)[C@H](CC(N)=O)NC(=O)[C@H](CCCCN)NC(=O)[C@H](CC(C)C)NC(=O)[C@H](C(C)C)NC(=O)[C@H](C)NC1=O)C(C)C)[C@@H](C)CC` [FLSGILKLAFKIPSVLCAVLKNC], the MIC is 10.1 µM (≈ 25 µg/mL) in experiment [11], 5.04 µM (≈ 12.5 µg/mL) in [16], 10.1 µM (≈ 25 µg/mL) in experiment [17] and 20.2 µM (≈ 50 µg/mL) in experiment [8].

Take `CC(C)C[C@H](NC(=O)[C@H](C)NC(=O)CNC(=O)[C@H](CC(C)C)NC(=O)[C@@H](N)Cc1c[nH]c2ccccc12)C(=O)N[C@@H](Cc1ccccc1)C(=O)N[C@@H](CCCCN)C(=O)N[C@H](C(=O)N[C@@H](C)C(=O)N[C@@H](CO)C(=O)N[C@@H](CCCCN)C(=O)O)C(C)C` [WLGALFKVASK]: the MIC was at least 164 µM in [1]; 82 µM (≈ 100 µg/mL) in experiment [2]; at least 82 µM in experiment [3]; at least 164 µM in experiment [4]; over 164 µM in [5]; at least 164 µM in [6]. In addition, the MIC in experiment [7] was 164 µM (≈ 200 µg/mL); in experiment [8] it was at least 82 µM; in [9], at least 164 µM; in experiment [10], over 164 µM.

As to `CC(C)C[C@H](NC(=O)[C@@H](NC(=O)[C@H](CCCCN)NC(=O)[C@H](CO)NC(=O)[C@H](C)NC(=O)[C@@H](NC(=O)[C@H](CCCCN)NC(=O)[C@H](Cc1ccccc1)NC(=O)[C@H](CC(C)C)NC(=O)[C@H](C)NC(=O)CNC(=O)[C@H](CC(C)C)NC(=O)[C@H](C)N)C(C)C)C(C)C)C(=O)O` [ALGALFKVASKVL], the MIC was at least 152 µM in experiment [1]; 9.49 µM (≈ 12.5 µg/mL) in [2]; at least 152 µM in experiment [3]; at least 152 µM in experiment [4]; 76 µM (≈ 100 µg/mL) in experiment [5]; at least 152 µM in experiment [6]. For the same compound, the MIC in [7] is 38 µM (≈ 50 µg/mL); in [8], 19 µM (≈ 25 µg/mL); in [9], at least 38 µM; in experiment [10], 152 µM (≈ 200 µg/mL).
